Laboratory results: patent US20180244895A1, “ANTIMICROBIAL AND ANTIVIRAL COMPOSITE POLYMER SURFACES” (YEDITEPE UNIVERSITESI, priority 2015, published 2018)
Read-outs that look alike come from different tables or passages of the source.

Legend:
Candida albicans = test: Modified disc diffusion method, boron compounds; format: cell-based; parameters: key: + sign indicates that the boron compounds had antimicrobial activity.; − sign indicates that there is no antimicrobial activity; conditions: disc immersed in pulverized compound; 36±1° C., 48 hours
Aspergillus spp. = test: Modified disc diffusion method, boron compounds; format: cell-based; parameters: key: + sign indicates that the boron compounds had antimicrobial activity.; − sign indicates that there is no antimicrobial activity; conditions: disc immersed in pulverized compound; 25±1° C., 72 hours
[1] = system: Methicillin-resistant Staphylococcus aureus (MRSA); test: Modified disc diffusion method, boron compounds; format: cell-based; parameters: key: + sign indicates that the boron compounds had antimicrobial activity.; − sign indicates that there is no antimicrobial activity; conditions: disc immersed in pulverized compound; 36±1° C., 24 hours
Fusarium oxysporum = test: Modified disc diffusion method, boron compounds; format: cell-based; parameters: key: + sign indicates that the boron compounds had antimicrobial activity.; − sign indicates that there is no antimicrobial activity; conditions: disc immersed in pulverized compound; 25±1° C., 72 hours
Pseudomonas aeruginosa = test: Modified disc diffusion method, boron compounds; format: cell-based; parameters: key: + sign indicates that the boron compounds had antimicrobial activity.; − sign indicates that there is no antimicrobial activity; conditions: disc immersed in pulverized compound; 36±1° C., 24 hours
[2] = system: Vancomycin-resistant Enterococcus (VRE); test: Modified disc diffusion method, boron compounds; format: cell-based; parameters: key: + sign indicates that the boron compounds had antimicrobial activity.; − sign indicates that there is no antimicrobial activity; conditions: disc immersed in pulverized compound; 36±1° C., 24 hours
Escherichia coli = test: Modified disc diffusion method, boron compounds; format: cell-based; parameters: key: + sign indicates that the boron compounds had antimicrobial activity.; − sign indicates that there is no antimicrobial activity; conditions: disc immersed in pulverized compound; 36±1° C., 24 hours
Penicillium spp. = test: Modified disc diffusion method, boron compounds; format: cell-based; parameters: key: + sign indicates that the boron compounds had antimicrobial activity.; − sign indicates that there is no antimicrobial activity; conditions: disc immersed in pulverized compound; 25±1° C., 72 hours
Staphylococcus aureus = test: Modified disc diffusion method, boron compounds; format: cell-based; parameters: key: + sign indicates that the boron compounds had antimicrobial activity.; − sign indicates that there is no antimicrobial activity; conditions: disc immersed in pulverized compound; 36±1° C., 24 hours
Botrytis cinerea = test: Modified disc diffusion method, boron compounds; format: cell-based; parameters: key: + sign indicates that the boron compounds had antimicrobial activity.; − sign indicates that there is no antimicrobial activity; conditions: disc immersed in pulverized compound; 25±1° C., 72 hours
Candida glabrata = test: Modified disc diffusion method, boron compounds; format: cell-based; parameters: key: + sign indicates that the boron compounds had antimicrobial activity.; − sign indicates that there is no antimicrobial activity; conditions: disc immersed in pulverized compound; 36±1° C., 48 hours
enteric bacteria = conditions: cited from earlier work
[3] = system: humanrhinovirus, coxsackievirus and mengovirus; conditions: binds with ions of metals such as zinc; cited from earlier work
[4] = ingestion of 30 mg twice daily for three weeks; cited from earlier work
[5] = system: various bacterial strains; conditions: 0.02% chlorhexidine solution, 10-minute exposure; cited from earlier work
[6] = system: poliovirus type 1 Chat strain; format: cell-based
adenovirus = conditions: 0.02% chlorhexidine gluconate, 90-minute exposure at room temperature; cited from earlier work
Herpesvirus hominis = conditions: 0.02% chlorhexidine gluconate, 90-minute exposure at room temperature; cited from earlier work
[7] = system: Human adenovirus type 5 Adenoid 75 strain; format: cell-based
poliovirus = conditions: 0.02% chlorhexidine gluconate, 90-minute exposure at room temperature; cited from earlier work
[8] = system: P. aeruginosa NCIMB 10548; conditions: cited from earlier work
[9] = system: Saccharomyces cerevisiae yeast; conditions: cited from earlier work
E. coli NCIMB 10000 = conditions: cited from earlier work
Pityrosporum ovale = conditions: cited from earlier work
[10] = 60 minutes, clean medium, 20° C.

Row | Compound | Antimicrobial activity (inhibition zone) (Candida albicans) | Antimicrobial activity (inhibition zone) (Aspergillus spp.) | Antimicrobial activity (inhibition zone) [1] | Antimicrobial activity (inhibition zone) (Fusarium oxysporum) | Antimicrobial activity (inhibition zone) (Pseudomonas aeruginosa) | Antimicrobial activity (inhibition zone) [2] | Antimicrobial activity (inhibition zone) (Escherichia coli) | Antimicrobial activity (inhibition zone) (Penicillium spp.) | Antimicrobial activity (inhibition zone) (Staphylococcus aureus) | Antimicrobial activity (inhibition zone) (Botrytis cinerea) | Antimicrobial activity (inhibition zone) (Candida glabrata) | also measured
1 | Zinc borate [ZB] | + | + | + | + | + | + | + | + | + | + | + | 
2 | O.O.O.O.[Na+].[O-]B1OO1 [SPT, Sodium perborate tetrahydrate] | + | + | + | + | + | + | + | + | + | + | + | 
3 | OB(O)O [boric acid] |  |  |  |  |  |  |  |  |  |  |  | antibacterial activity (enteric bacteria): has antibacterial activity
4 | CC(C)c1cccc(=O)c(O)c1 [hinokitiol] |  |  |  |  |  |  |  |  |  |  |  | inhibition of virus proliferation [3]: inhibited proliferation
5 | O=BOB(O)OB(O)OB=O [borax, borax (Na2B4O7 10 H2O)] |  |  |  |  |  |  |  |  |  |  |  | effect on rheumatism [4]: substantially alleviated rheumatism
6 | O.O.O.O.O=BOB1OB(OB=O)OB2OB([O-])OB([O-])OB(O1)O2.[Na+].[Na+] [DOT, Disodium octaborate tetrahydrate] | + | + | + | + | + | + | + | + | + | + | + | 
7 | O.O.O.O.O.[Na+].[Na+].[O-]B1OB2OB([O-])OB(O1)O2 [BP, Borax pentahydrate] | + | + | + | + | + | + | + | + | + | + | + | 
8 | O.O.O.O.O.O.O.O.O.O.[Na+].[Na+].[O-]B1OB2OB([O-])OB(O1)O2 [SB, Sodium Borate] | + | + | + | + | + | + | + | + | + | + | + | 
9 | [H]/N=C(\N/C(=N/[H])NCCCCCCNC(=N)NC(=N)Nc1ccc(Cl)cc1)Nc1ccc(Cl)cc1 [chlorhexidine] |  |  |  |  |  |  |  |  |  |  |  | inhibition of microorganisms [5]: 4 log
10 | N=C(NCCCCCCNC(=N)NC(=N)Nc1ccc(Cl)cc1)NC(=N)Nc1ccc(Cl)cc1.O=C(O)[C@H](O)[C@@H](O)[C@H](O)[C@H](O)CO.O=C(O)[C@H](O)[C@@H](O)[C@H](O)[C@H](O)CO [Chlorhexidine Gluconate, Chlorhexidine gluconate] |  |  |  |  |  |  |  |  |  |  |  | Virus titer with disinfectant [6]: 2.0 Logarithmic TCID50; reduction in virus titer [6]: at least 4 log; activity against virus (adenovirus): ineffective; reduction of virus titration (Herpesvirus hominis): more than 99%; Reduction ratio in virus titer [7]: 4.0 Logarithmic TCID50 ratio; Virus titer with disinfectant [7]: 1.5 Logarithmic TCID50; reduction in virus titer [7]: at least 4 log; Reduction ratio in virus titer ([7]; 1 minute, clean medium, 20° C.): 4.0 Logarithmic TCID50 ratio; Virus titer with disinfectant ([7]; 1 minute, clean medium, 20° C.): 1.5 Logarithmic TCID50; Reduction ratio in virus titer [7, 10]: 4.0 Logarithmic TCID50 ratio; Virus titer with disinfectant [7, 10]: 1.5 Logarithmic TCID50; active against virus ([7]; used directly without being diluted, 20° C., 1 and 60 minute application periods): 99.9%; activity against virus (poliovirus): ineffective
11 | Zinc pyrithione |  |  |  |  |  |  |  |  |  |  |  | MIC value [8]: 13 µg/mL; antiyeast activity [9]: has antiyeast activity; Reduction ratio in virus titer [6]: 4.5 Logarithmic TCID50 ratio; Virus titer with disinfectant [6]: 1.5 Logarithmic TCID50; reduction in virus titer [6]: at least 4 log; MIC value (E. coli NCIMB 10000): 4.5 µg/mL; antifungal activity (Pityrosporum ovale): has antifungal activity; Reduction ratio in virus titer [7]: 4.0 Logarithmic TCID50 ratio; Virus titer with disinfectant [7]: 1.0 Logarithmic TCID50; active against virus [7]: 99.9%; reduction in virus titer [7]: at least 4 log
